# In ChEMBL document CHEMBL4177710, “Bisindolylmethane thiosemicarbazides as potential inhibitors of urease: Synthesis and molecular modeling studies” (Bioorg Med Chem, 2018):
# Target: Urease (Canavalia ensiformis, UniProt P07374)
# Assay: Inhibition of jack bean urease assessed as reduction in ammonia production using urea as substrate after 15 mins by indophenol method
# Chain of Urease (P07374 whole entry): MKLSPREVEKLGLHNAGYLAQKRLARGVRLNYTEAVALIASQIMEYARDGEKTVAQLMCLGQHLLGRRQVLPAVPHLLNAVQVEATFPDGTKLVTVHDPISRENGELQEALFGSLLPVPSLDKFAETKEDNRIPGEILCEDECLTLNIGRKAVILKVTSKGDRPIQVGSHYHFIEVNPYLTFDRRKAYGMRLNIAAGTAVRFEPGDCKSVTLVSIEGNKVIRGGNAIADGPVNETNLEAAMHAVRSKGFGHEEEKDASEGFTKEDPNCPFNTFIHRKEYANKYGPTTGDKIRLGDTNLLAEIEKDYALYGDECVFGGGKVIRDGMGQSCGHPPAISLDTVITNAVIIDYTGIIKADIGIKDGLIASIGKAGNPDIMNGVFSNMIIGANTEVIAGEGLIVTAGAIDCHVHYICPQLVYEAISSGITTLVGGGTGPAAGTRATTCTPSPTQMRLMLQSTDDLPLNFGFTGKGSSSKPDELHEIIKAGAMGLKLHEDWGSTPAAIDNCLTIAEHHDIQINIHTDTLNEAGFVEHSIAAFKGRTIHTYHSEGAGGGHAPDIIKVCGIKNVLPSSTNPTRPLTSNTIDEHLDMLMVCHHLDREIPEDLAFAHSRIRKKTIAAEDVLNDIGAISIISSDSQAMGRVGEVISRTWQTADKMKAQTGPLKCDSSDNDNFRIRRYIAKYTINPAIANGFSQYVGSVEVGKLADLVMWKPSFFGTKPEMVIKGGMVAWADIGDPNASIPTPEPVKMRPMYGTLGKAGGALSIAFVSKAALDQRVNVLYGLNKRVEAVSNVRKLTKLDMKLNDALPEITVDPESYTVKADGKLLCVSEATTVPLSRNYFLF
row,SMILES,IC50
1,Cc1ccc(C(c2c[nH]c3ccc(C(=O)NNC(=S)Nc4ccc(C(F)(F)F)cc4)cc23)c2c[nH]c3ccc(C(=O)NNC(=S)Nc4ccc(C(F)(F)F)cc4)cc23)cc1,0.5 µM
2,Cc1ccc(C(c2c[nH]c3ccc(C(=O)NNC(=S)Nc4cccc(Br)c4)cc23)c2c[nH]c3ccc(C(=O)NNC(=S)Nc4cccc(Br)c4)cc23)cc1,1.8 µM
3,COc1cccc(NC(=S)NNC(=O)c2ccc3[nH]cc(C(c4ccc(C)cc4)c4c[nH]c5ccc(C(=O)NNC(=S)Nc6cccc(OC)c6)cc45)c3c2)c1,12.1 µM
4,Cc1ccc(C(c2c[nH]c3ccc(C(=O)NNC(=S)Nc4ccc(F)cc4)cc23)c2c[nH]c3ccc(C(=O)NNC(=S)Nc4ccc(F)cc4)cc23)cc1,1.1 µM
5,Cc1ccc(C(c2c[nH]c3ccc(C(=O)NNC(=S)Nc4cccc(C)c4)cc23)c2c[nH]c3ccc(C(=O)NNC(=S)Nc4cccc(C)c4)cc23)cc1,5.1 µM
6,Cc1ccc(C(c2c[nH]c3ccc(C(=O)NNC(=S)Nc4ccc([N+](=O)[O-])cc4)cc23)c2c[nH]c3ccc(C(=O)NNC(=S)Nc4ccc([N+](=O)[O-])cc4)cc23)cc1,9.5 µM
7,Cc1ccc(C(c2c[nH]c3ccc(C(=O)NNC(=S)Nc4ccccc4C)cc23)c2c[nH]c3ccc(C(=O)NNC(=S)Nc4ccccc4C)cc23)cc1,3.3 µM
8,Cc1ccc(C(c2c[nH]c3ccc(C(=O)NNC(=S)Nc4ccccc4F)cc23)c2c[nH]c3ccc(C(=O)NNC(=S)Nc4ccccc4F)cc23)cc1,0.8 µM
9,Cc1ccc(C(c2c[nH]c3ccc(C(=O)NNC(=S)Nc4ccccc4Cl)cc23)c2c[nH]c3ccc(C(=O)NNC(=S)Nc4ccccc4Cl)cc23)cc1,1.2 µM
10,COc1ccccc1NC(=S)NNC(=O)c1ccc2[nH]cc(C(c3ccc(C)cc3)c3c[nH]c4ccc(C(=O)NNC(=S)Nc5ccccc5OC)cc34)c2c1,8.4 µM
11,Cc1ccc(C(c2c[nH]c3ccc(C(=O)NNC(=S)NC45CC6CC(CC(C6)C4)C5)cc23)c2c[nH]c3ccc(C(=O)NNC(=S)NC45CC6CC(CC(C6)C4)C5)cc23)cc1 (stereo not drawn),18.5 µM
12,Cc1ccc(C(c2c[nH]c3ccc(C(=O)NNC(=S)Nc4ccc(Br)cc4)cc23)c2c[nH]c3ccc(C(=O)NNC(=S)Nc4ccc(Br)cc4)cc23)cc1,1.3 µM
13,Cc1ccc(C(c2c[nH]c3ccc(C(=O)NNC(=S)Nc4ccc(Cl)cc4)cc23)c2c[nH]c3ccc(C(=O)NNC(=S)Nc4ccc(Cl)cc4)cc23)cc1,2.75 µM
14,Cc1ccc(C(c2c[nH]c3ccc(C(=O)NNC(=S)Nc4ccc(Cl)c(Cl)c4)cc23)c2c[nH]c3ccc(C(=O)NNC(=S)Nc4ccc(Cl)c(Cl)c4)cc23)cc1,0.14 µM
15,Cc1ccc(C(c2c[nH]c3ccc(C(=O)NNC(=S)Nc4cccc(F)c4)cc23)c2c[nH]c3ccc(C(=O)NNC(=S)Nc4cccc(F)c4)cc23)cc1,0.98 µM
16,Cc1ccc(NC(=S)NNC(=O)c2ccc3[nH]cc(C(c4ccc(C)cc4)c4c[nH]c5ccc(C(=O)NNC(=S)Nc6ccc(C)cc6)cc45)c3c2)cc1,4.2 µM
17,Cc1ccc(C(c2c[nH]c3ccc(C(=O)NNC(=S)Nc4cccc([N+](=O)[O-])c4)cc23)c2c[nH]c3ccc(C(=O)NNC(=S)Nc4cccc([N+](=O)[O-])c4)cc23)cc1,7.6 µM
18,Cc1ccc(C(c2c[nH]c3ccc(C(=O)NNC(=S)Nc4ccccc4Br)cc23)c2c[nH]c3ccc(C(=O)NNC(=S)Nc4ccccc4Br)cc23)cc1,2.5 µM
